Assay results taken from patent US5559128A, “3-substituted piperidines promote release of growth hormone” (Merck & Co., Inc., priority 1995, dated 1996).

Assay: Log P
Conditions: Log P (min), Table I

Compound | chromatographic logP
CC(C)(N)C(=O)N[C@H](Cc1c[nH]c2ccccc12)C(=O)N1CCCC(N(c2ccccc2)S(=O)(=O)c2ccccc2)C1 (single isomer, unassigned) [3b] | 3.2
CC(C)(N)C(=O)N[C@H](Cc1c[nH]c2ccccc12)C(=O)N1CCCC(N(Cc2ccccc2)S(=O)(=O)c2ccccc2)C1 (some centres unmarked) [3a] | 3.6
